This note sets out measurements from ChEMBL document CHEMBL3621178, “Antidiabetic effect of novel benzenesulfonylureas as PPAR-γ agonists and their anticancer effect” (Bioorg Med Chem Lett, 2015).

Active and inactive are the calls of the source. The rule behind the calls is not given here.

In one data set the test system is K562. Nature of the data set: Growth inhibition of human K562 cells assessed as cell viability at 10 uM incubated for 48 hrs by sulforhodamine B assay. The following applies: K562, 48 h, read-out: Activity. In kind it is functional.
A short description of data set [1]: Growth inhibition of human MOLT4 cells assessed as cell viability at 10 uM incubated for 48 hrs by sulforhodamine B assay. In kind it is functional. The following applies: MOLT-4, 48 h, read-out: Activity. Background: The SRB assay estimates cell density from bound dye.
A further data set deals with SR. The experiment in a line: Growth inhibition of human SR cells assessed as cell viability at 10 uM incubated for 48 hrs by sulforhodamine B assay. In kind it is functional. The following applies: read-out: Activity.
Another data set concerns Malme-3M. The experiment in a line: Growth inhibition of human MALME-3M cells assessed as cell viability at 10 uM incubated for 48 hrs by sulforhodamine B assay. In kind it is functional. The following applies: read-out: Activity.
The next data set concerns OVCAR-5. The experiment in a line: Growth inhibition of human OVCAR5 cells assessed as cell viability at 10 uM incubated for 48 hrs by sulforhodamine B assay. In kind it is functional. The following applies: OVCAR-5, 48 h, read-out: Activity.
Data set [2] can be described thus: Growth inhibition of human COLO205 cells assessed as cell viability at 10 uM incubated for 48 hrs by sulforhodamine B assay. In kind it is functional. The note with it: COLO 205, 48 h, read-out: Activity.
For another data set, the system named is A549. The experiment in a line: Growth inhibition of human A549/ATCC cells assessed as cell viability at 10 uM incubated for 48 hrs by sulforhodamine B assay. The following applies: A549, 48 h, read-out: Activity. In kind it is functional.
In a further data set the test system is HOP-62. The experiment in a line: Growth inhibition of human HOP62 cells assessed as cell viability at 10 uM incubated for 48 hrs by sulforhodamine B assay. In kind it is functional. The following applies: HOP-62, 48 h, read-out: Activity.
A further data set has as its system HCT-15. Nature of the data set: Growth inhibition of human HCT15 cells assessed as cell viability at 10 uM incubated for 48 hrs by sulforhodamine B assay. The following applies: HCT-15, 48 h, read-out: Activity. In kind it is functional.
In a further data set the test system is CAKI-1. The experiment in a line: Growth inhibition of human CAKI-1 cells assessed as cell viability at 10 uM incubated for 48 hrs by sulforhodamine B assay. In kind it is functional. The following applies: CAKI-1, 48 h, read-out: Activity.
Data set [3] is described as follows: Growth inhibition of human NCI60 cells assessed as cell viability at 10 uM incubated for 48 hrs by sulforhodamine B assay. In kind it is functional. The note with it: NCI60, 48 h, read-out: Activity.
The next data set has as its system SNB-19. Nature of the data set: Growth inhibition of human SNB19 cells assessed as cell viability at 10 uM incubated for 48 hrs by sulforhodamine B assay. In kind it is functional. The following applies: SNB-19, 48 h, read-out: Activity.
A further data set concerns MCF7. Nature of the data set: Growth inhibition of human MCF7 cells assessed as cell viability at 10 uM incubated for 48 hrs by sulforhodamine B assay. The following applies: MCF7, 48 h, read-out: Activity. In kind it is functional.
Another data set has as its system IGROV-1. The experiment in a line: Growth inhibition of human IGROV1 cells assessed as cell viability at 10 uM incubated for 48 hrs by sulforhodamine B assay. In kind it is functional. The following applies: IGROV-1, 48 h, read-out: Activity.
The subject of another data set is HL-60(TB). The experiment in a line: Growth inhibition of human HL-60(TB) cells assessed as cell viability at 10 uM incubated for 48 hrs by sulforhodamine B assay. In kind it is functional. The note with it: HL-60, 48 h, read-out: Activity.
For the next data set, the system named is NCI-H226. Nature of the data set: Growth inhibition of human NCI-H226 cells assessed as cell viability at 10 uM incubated for 48 hrs by sulforhodamine B assay. In kind it is functional. The following applies: NCI-H226, 48 h, read-out: Activity.
The next data set has as its system A498. The experiment in a line: Growth inhibition of human A498 cells assessed as cell viability at 10 uM incubated for 48 hrs by sulforhodamine B assay. In kind it is functional. The note with it: A498, 48 h, read-out: Activity.
The subject of a further data set is HCT-116. The experiment in a line: Growth inhibition of human HCT116 cells assessed as cell viability at 10 uM incubated for 48 hrs by sulforhodamine B assay. In kind it is functional. The following applies: HCT-116, 48 h, read-out: Activity.
The next data set has as its system SNB-75. The experiment in a line: Growth inhibition of human SNB75 cells assessed as cell viability at 10 uM incubated for 48 hrs by sulforhodamine B assay. The note with it: SNB-75, 48 h, read-out: Activity. In kind it is functional.
Another data set has as its system SK-MEL-2. Nature of the data set: Growth inhibition of human SK-MEL-2 cells assessed as cell viability at 10 uM incubated for 48 hrs by sulforhodamine B assay. In kind it is functional. The note with it: SK-MEL-2, 48 h, read-out: Activity.
The next data set has as its system NCI-H522. The experiment in a line: Growth inhibition of human NCI-H522 cells assessed as cell viability at 10 uM incubated for 48 hrs by sulforhodamine B assay. The note with it: NCI-H522, 48 h, read-out: Activity. In kind it is functional.
Another data set deals with TK-10. Nature of the data set: Growth inhibition of human TK10 cells assessed as cell viability at 10 uM incubated for 48 hrs by sulforhodamine B assay. The following applies: TK-10, 48 h, read-out: Activity. In kind it is functional.
Data set [4] concerns Rattus norvegicus. Nature of the data set: Toxicity in STZ-induced diabetic Wistar rat model assessed as increase in body weight at 30 mg/kg, po repeated for 15 days […]. In kind it is organism-based. The following applies: in vivo, 360 h.
In data set [5] the target is T1, Peroxisome proliferator-activated receptor gamma (Homo sapiens) (UniProt P37231).
T1 sequence (whole entry): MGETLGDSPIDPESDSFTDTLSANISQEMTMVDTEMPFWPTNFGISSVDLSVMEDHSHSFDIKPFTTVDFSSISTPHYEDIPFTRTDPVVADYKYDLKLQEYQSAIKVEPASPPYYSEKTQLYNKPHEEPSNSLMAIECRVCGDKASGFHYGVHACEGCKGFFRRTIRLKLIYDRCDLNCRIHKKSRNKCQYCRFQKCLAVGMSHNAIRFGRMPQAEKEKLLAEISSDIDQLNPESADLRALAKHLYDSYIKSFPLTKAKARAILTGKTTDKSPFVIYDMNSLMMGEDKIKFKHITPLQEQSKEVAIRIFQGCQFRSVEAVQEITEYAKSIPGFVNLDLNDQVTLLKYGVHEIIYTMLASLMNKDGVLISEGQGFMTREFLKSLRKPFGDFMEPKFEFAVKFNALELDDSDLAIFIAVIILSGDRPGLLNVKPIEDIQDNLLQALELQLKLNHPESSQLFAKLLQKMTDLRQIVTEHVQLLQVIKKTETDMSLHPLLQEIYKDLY
The experiment in a line: Agonist activity at PPARgamma (unknown origin) expressed in HEK293 cells assessed as receptor transactivation at 10 uM incubated for 24 hrs by luciferase reporter gene assay. In kind it is cell-based. On the technique in general: Reporter assays use an easily measured gene product as a stand-in for the process of interest.

In data set [6] the test system is Rattus norvegicus. The experiment in a line: Antidiabetic activity in STZ-induced diabetic Wistar rat model assessed as reduction in blood glucose level at 30 mg/kg, po repeated for 15 days by GOD-POD method. In kind it is functional, organism-based.

As to `COc1ccc(NC(=O)NS(=O)(=O)c2ccc(N3N=C(c4cc5ccccc5oc4=O)CC3c3ccc(N(C)C)cc3)cc2)cc1` (configuration not stated), the viability at 10 µM in the data set with K562 worked out at 114%; in data set [1], 107%; with SR, 74.3%; in the data set with Malme-3M it was 81%; with OVCAR-5 it was 102%; in [2], 115%. Also, the viability at 10 µM in the data set with A549 turned out to be 95%; in the data set with HOP-62, 71.8%; in the data set on HCT-15, 93.1%; with CAKI-1, 88.9%; in [3], 95.5%; in the data set on SNB-19 it was 103%. Further, the viability at 10 µM is 83.1% in the data set on MCF7; 109% with IGROV-1; 130% in the data set on HL-60(TB); 89.7% in the data set with NCI-H226; 80.6% with A498; 82.6% with HCT-116. Besides, the viability at 10 µM with SNB-75 was found to be 70.2%.
Regarding `CN(C)c1ccc(C2CC(c3cc4ccccc4oc3=O)=NN2c2ccc(S(=O)(=O)NC(=O)NCc3ccccc3)cc2)cc1` (configuration not stated), the viability at 10 µM was found to be 59.5% in the data set with K562; 66.6% in data set [1]; 19.7% in the data set with SR; 89.9% with Malme-3M; 74.6% in the data set with OVCAR-5; 78.2% in data set [2]. Further, the viability at 10 µM is 61% in the data set on A549; 57.8% in the data set with HOP-62; 32.8% in the data set on HCT-15; 49.4% in the data set on CAKI-1; 65.8% in [3]; 82% with SNB-19. Moreover, the viability at 10 µM in the data set with MCF7 was determined as 47.6%; in the data set with IGROV-1 it was 97.8%; with HL-60(TB), 66.4%; in the data set with NCI-H226 it was 74%; with A498 it was 51.2%; in the data set with HCT-116, 48.5%. Besides, the viability at 10 µM with SNB-75 stood at 27.1%.
`O=C(NCc1ccccc1)NS(=O)(=O)c1ccc(N2N=C(c3cc4ccccc4oc3=O)CC2c2cccs2)cc1` (configuration not stated): the viability at 10 µM in the data set on K562 worked out at 111%; in data set [1] it was 106%; with SR it was 98.8%; with Malme-3M, 90.7%; with OVCAR-5, 111%; in data set [2], 119%. The viability at 10 µM with A549 was determined as 99.3%; in the data set on SK-MEL-2, 96%; with HOP-62 it was 93.6%; with HCT-15 it was 106%; with CAKI-1, 94.2%; in data set [3] it was 103%. The viability at 10 µM is 96.3% with NCI-H522; 108% in the data set on SNB-19; 94.4% in the data set on MCF7; 117% in the data set on IGROV-1; 119% in the data set with HL-60(TB); 98.4% in the data set with NCI-H226. Moreover, the viability at 10 µM amounted to 107% with A498, 106% with HCT-116, 82.3% in the data set with SNB-75 and 108% in the data set on TK-10.
With `COc1ccc(C2CC(c3ccco3)=NN2c2ccc(S(=O)(=O)NC(=O)NCc3ccccc3)cc2)cc1` (configuration not stated), the viability at 10 µM with K562 was found to be 98%; in data set [1], 110%; with SR, 107%; in the data set with Malme-3M, 107%; in the data set on OVCAR-5, 102%; in data set [2] it was 123%. Besides, the viability at 10 µM came to 92.8% in the data set with A549; 90.7% with SK-MEL-2; 103% in the data set with HOP-62; 101% in the data set on HCT-15; 97.7% in the data set with CAKI-1; 101% in [3]. Moreover, the viability at 10 µM with NCI-H522 is 86.3%; with SNB-19, 108%; in the data set on MCF7 it was 94.7%; in the data set with IGROV-1, 113%; in the data set with HL-60(TB), 126%; in the data set on NCI-H226, 97.1%. Besides, the viability at 10 µM in the data set on A498 came out at 96.2%; in the data set with HCT-116, 93.9%; in the data set on SNB-75, 97.8%; in the data set with TK-10, 93%. For the same compound, the Activity entry in the data set on Rattus norvegicus [4] is recorded as “Non-toxic”. The result (in data set [5]; with Rattus norvegicus [6]) was Active.
`COc1ccc(C2CC(c3cc4ccccc4oc3=O)=NN2c2ccc(S(=O)(=O)NC(=O)Nc3ccccc3C)cc2)cc1` (configuration not stated): the viability at 10 µM with K562 was found to be 76.8%; in data set [1], 84.6%; in the data set on SR, 80.4%; in the data set with Malme-3M, 104%; in the data set on OVCAR-5 it was 83.1%; in data set [2], 119%. The viability at 10 µM with A549 is 96.6%; in the data set with HOP-62 it was 87.3%; in the data set with HCT-15, 95.8%; with CAKI-1 it was 83.8%; in data set [3] it was 93.4%; in the data set on SNB-19, 102%. Besides, the viability at 10 µM with MCF7 was found to be 91.1%; in the data set with IGROV-1, 109%; with HL-60(TB), 108%; in the data set with NCI-H226 it was 85.4%; in the data set on A498 it was 94.7%; in the data set with HCT-116 it was 82.6%. Moreover, the viability at 10 µM in the data set on SNB-75 was 78.3%. In addition, the Activity entry in the data set on Rattus norvegicus [4] is “Non-toxic”. Besides, the result (in data set [5]; in the data set on Rattus norvegicus [6]) was Active.
